Values of other authors, collected in patent US10551383B2, “Methods of detecting a polypeptide having anaplastic lymphoma kinase activity in kidney cancer” (Cell Signaling Technology, Inc., priority 2010, dated 2020).

System: HGF-stimulated Madin-Darby Canine Kidney (MDCK) cells
Conditions: disclosed in U.S. Pub. No. 2008/0300273

For C[C@@H](Oc1cc(-c2cnn(C3CCNCC3)c2)cnc1N)c1c(Cl)ccc(F)c1Cl [PF-02341066, Crizotinib], the cell colony scattering is given as “able to reduce cell colony scattering”.
